JP2022046588A, “治療用組成物およびその使用” (priority 2016, dated 2017)
Like-named read-outs stand apart in the source and are kept apart here.

Columns and labels:
[1] = tested on: human colon adenocarcinoma cell line DLD-1 [ヒト結腸腺癌細胞株DLD-1]; experiment: MTT cell proliferation assay, DLD-1; format: cell-based
[2] = tested on: human melanoma cell line A-2058 [ヒト黒色腫細胞株A-2058]; experiment: MTT cell proliferation assay, A-2058; format: cell-based
[3] = tested on: human esophageal cancer cell line KYSE-30 [ヒト食道癌細胞株KYSE-30]; experiment: MTT cell proliferation assay, KYSE-30; format: cell-based; conditions: for inhibition at 58.5 µg/mL: low but significant
[4] = tested on: human epidermoid carcinoma cell line A-431 [ヒト類表皮癌細胞株A-431]; experiment: MTT cell proliferation assay, A-431; format: cell-based; conditions: for inhibition at 50 µg/mL: Homo sapiens, A-431, Example 7, 50 μg/ml, 24 h
[5] = tested on: human gastric cancer cell line NCI-N87 [ヒト胃癌細胞株NCI-N87]; experiment: MTT cell proliferation assay, NCI-N87
[6] = tested on: human basal cell carcinoma cell line TE 354.T [ヒト基底細胞癌細胞株TE 354.T]; experiment: MTT cell proliferation assay, TE 354.T; format: cell-based; conditions: for inhibition at 50 µg/mL: Homo sapiens, Example 8, 50 μg/ml, 24 h
[7] = Homo sapiens, NCI-N87, read-out: antiproliferative activity

## CCCCCCCCCCCCCC(O)CCCCC(O)CC(=O)OCC(O)COC(C)=O (stereo not drawn) [GLY-1Ac-2, 1-(3,8-ジヒドロキシヘンエイコサノイル)3-アセトキシグリセロール]
[1]; Example 9, first assay, 50 μg/ml
  potency ranking (in words): 最も強力

## O=c1[nH]cc(F)c(=O)[nH]1 [5-フルオロウラシル]
[2]; Example 6, 5-FU at 0.195, 0.65 and 1.95 μg/ml
  antiproliferative activity (in words): 低い且つ有意ではない活性
[3]; Example 13, 5-FU at 6.5 and 19.5 μg/ml
  antiproliferative activity (in words): 有意ではない活性
[3]; Example 14, 5-FU at 6.5 and 19.5 μg/ml
  antiproliferative activity (in words): 有意ではない活性
[3]; Homo sapiens, KYSE-30, Example 13, 5-FU at 58.5 μg/ml, read-out: antiproliferative activity
  inhibition at 58.5 µg/mL: 17%
[3]; Homo sapiens, KYSE-30, Example 14, 5-FU at 58.5 μg/ml, read-out: inhibition of proliferation
  inhibition at 58.5 µg/mL: 16.8%
[1]; Example 9, 5-FU at 0.65 and 1.95 μg/ml
  antiproliferative activity (in words): 低い且つ有意ではない活性
[1]; Example 10, 5-FU at 6.5, 19.5 and 58.5 μg/ml
  antiproliferative activity (in words): 低い且つ有意ではない活性
[4]; Example 7, 5-FU at 0.195, 0.65 and 1.95 μg/ml
  antiproliferative activity (in words): 低い且つ有意ではない活性
[5]; Example 11, 5-FU at 6.5 μg/ml (of 6.5, 19.5, 58.5 μg/ml)
  activity ranking of 5-FU concentrations (in words): 最も高い活性
[5]; Example 11, 5-FU at 6.5, 19.5 and 58.5 μg/ml
  antiproliferative activity (in words): 低い且つ有意ではない活性
[5]; Example 12, 5-FU at 6.5 μg/ml (of 6.5, 19.5, 58.5 μg/ml)
  activity ranking of 5-FU concentrations (in words): 最も高い活性
[5]; Example 12, 5-FU at 6.5, 19.5 and 58.5 μg/ml
  antiproliferative activity (in words): 低い且つ有意ではない活性
[6]; Example 8, 5-FU at 0.195, 0.65 and 1.95 μg/ml
  antiproliferative activity (in words): 低い且つ有意ではない活性

## CCCCCCCCCCCCCC(O)CCCCC(O)CC(=O)OCC(O)CO (stereo not drawn) [GLY-0Ac-2, 1-(3,8-ジヒドロキシヘンエイコサノイル)グリセロール]
[2]; Example 6, 50 μg/ml, highly purified compounds
  potency ranking (in words): 最も強力

## CCCCCCCCCCCCC(O)CCCCC(O)CC(=O)OCC(O)CO (stereo not drawn) [GLY-0Ac-1, 1-(3,8-ジヒドロキシエイコサノイル)グリセロール]
[4]
  inhibition at 50 µg/mL: 81.5%
[6]
  inhibition at 50 µg/mL: 38%

## CCCCCCCCCCCCC(O)CCCCC(O)CC(=O)OCC(O)COC(C)=O (stereo not drawn) [GLY-1Ac-1, 1-(3,8-ジヒドロキシエイコサノイル)3-アセトキシグリセロール]
[3]; Example 13, 50 μg/ml
  potency ranking (in words): 最も強力
[3]; Homo sapiens, KYSE-30, Example 13, 10 μg/ml, not statistically significant, read-out: antiproliferative activity
  inhibition at 10 µg/mL: 9%
[3]; Homo sapiens, KYSE-30, Example 13, 25 μg/ml, read-out: antiproliferative activity
  inhibition at 25 µg/mL: 50%
[1]; Homo sapiens, DLD-1, Example 9, second assay (retest), 25 μg/ml, read-out: antiproliferative activity
  inhibition at 25 µg/mL: 13%
[1]; Homo sapiens, DLD-1, Example 9, second assay (retest), 50 μg/ml, read-out: antiproliferative activity
  inhibition at 50 µg/mL: 94%
[4]
  inhibition at 50 µg/mL: 80.6%
[5]; [7]
  inhibition at 10 µg/mL: 39%
  inhibition at 25 µg/mL: 86%
[6]
  inhibition at 50 µg/mL: 27.3%

## CCCCCCCCCCCCCCCC(=O)OCC(O)CO (stereo not drawn) [MGP, モノパルミチン酸グリセロール]
[3]; Homo sapiens, KYSE-30, Example 13, 50 μg/ml, read-out: inhibition of proliferation / antiproliferative activity
  inhibition at 50 µg/mL: 75%
